Source: ChEMBL document CHEMBL1121846, “Synthesis and pharmacological evaluation of sulfonium analogues of dopamine: nonclassical dopamine agonists” (J Med Chem, 1981)

Legend:
Rattus norvegicus [1] = organism: Rattus norvegicus; test: Maximal degree of inhibition was determined from displacement of [3H]dopamine binding to rat brain striatal membrane; assay type: functional
Rattus norvegicus [2] = organism: Rattus norvegicus; test: Contralateral rotation produced by intrastriatal injection in rats with unilateral 6-hydroxydopamine-induced lesions of the substantia nigra at 30 nmol; turns/5 min; assay type: functional
Rattus norvegicus [3] = organism: Rattus norvegicus; test: Contralateral rotation produced by intrastriatal injection in rats with unilateral 6-hydroxydopamine-induced lesions of the substantia nigra at 10 nmol; assay type: functional
Rattus norvegicus [4] = organism: Rattus norvegicus; test: Compound concentration required to reduce specific binding of tritiated dopamine to rat brain striatal membrane
Rattus norvegicus [5] = organism: Rattus norvegicus; test: Contralateral rotation produced by intrastriatal injection in rats with unilateral 6-hydroxydopamine-induced lesions of the substantia nigra at 90 nmol; turns/5 min; assay type: functional
Rattus norvegicus [6] = organism: Rattus norvegicus; test: Contralateral rotation produced by intrastriatal injection in rats with unilateral 6-hydroxydopamine-induced lesions of the substantia nigra at 2 microL; turns/5 min; assay type: functional
Rattus norvegicus [7] = organism: Rattus norvegicus; test: Maximal degree of inhibition at 3-30 uM concentration was determined from displacement of [3H]-dopamine binding to rat brain striatal membrane; assay type: functional
Rattus norvegicus [8] = organism: Rattus norvegicus; test: Contralateral rotation produced by intrastriatal injection in rats with unilateral 6-hydroxydopamine-induced lesions of the substantia nigra at 10 nmol; turns/5 min; assay type: functional
Rattus norvegicus [9] = organism: Rattus norvegicus; test: Compound concentration required to reduce specific binding of tritiated dopamine to rat brain striatal membrane by 50 % was reported
Rattus norvegicus [10] = organism: Rattus norvegicus; details: Striatum, 1 uM

Row | inhibition (Rattus norvegicus [1]) [%] | IC50 (Rattus norvegicus [4]) [nM] | Compound | Rate of rotation (Rattus norvegicus [2]) | Rate of rotation (Rattus norvegicus [5]) | Rate of rotation (Rattus norvegicus [8]) | further results
1 | 29 | 370 | C[S+](C)CC(=O)c1ccc(O)c(O)c1.[I-] | 25.33 | 38.83 |  | Rate of rotation (Rattus norvegicus [3]): 8.4 turns 5min-1
2 |  |  | O=C1O[C@H]([C@@H](O)CO)C(O)=C1O [ASCORBIC ACID] |  |  |  | Rate of rotation (Rattus norvegicus [6]): 4.5
3 |  |  | C[S+](C)C |  |  |  | inhibition (Rattus norvegicus [7]): 9%
4 | 19 | 440 | C[S+](C)CCc1ccc(O)c(O)c1.[I-] | 20.75 | 31.5 | 11.25 | 
5 |  |  | NCCc1ccc(O)c(O)c1 [DOPAMINE] |  |  | 39.75 | IC50 (Rattus norvegicus [9]): 29 nM; Total binding (Rattus norvegicus [10]): 72%
